Data on one molecule can be found in publication PMC5530453, “Anti-Parkinson Drug Biperiden Inhibits Enzyme Acetylcholinesterase” (BioMed Research International, 2017).

For this assay, the target named is Acetylcholinesterase (AChE) (Electrophorus electricus, UniProt O42275). In words: Ellman's assay with purchased electric eel AChE, Dixon plot. It is filed as biochemical. Background: Ellman's reagent forms a yellow product with free thiols.
Sequence of Acetylcholinesterase (AChE) (O42275 24-633): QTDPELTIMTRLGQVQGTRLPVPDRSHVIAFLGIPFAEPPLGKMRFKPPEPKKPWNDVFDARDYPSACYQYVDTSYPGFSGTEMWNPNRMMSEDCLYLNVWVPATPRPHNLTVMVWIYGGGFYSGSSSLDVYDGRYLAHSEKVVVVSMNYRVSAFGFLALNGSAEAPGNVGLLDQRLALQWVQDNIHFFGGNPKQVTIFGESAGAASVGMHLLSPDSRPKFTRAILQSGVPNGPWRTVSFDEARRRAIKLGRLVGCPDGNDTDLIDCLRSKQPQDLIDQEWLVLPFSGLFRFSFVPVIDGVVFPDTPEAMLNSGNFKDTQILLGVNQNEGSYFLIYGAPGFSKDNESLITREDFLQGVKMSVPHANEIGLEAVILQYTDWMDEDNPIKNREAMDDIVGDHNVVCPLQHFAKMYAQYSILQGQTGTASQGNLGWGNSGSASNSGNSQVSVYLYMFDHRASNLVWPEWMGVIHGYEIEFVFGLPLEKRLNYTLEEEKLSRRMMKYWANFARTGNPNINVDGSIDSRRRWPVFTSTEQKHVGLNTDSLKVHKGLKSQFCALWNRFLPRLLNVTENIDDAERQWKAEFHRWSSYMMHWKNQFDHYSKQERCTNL

One may read the Ki as the dissociation constant of the complex between target and ligand, obtained from inhibition or displacement. `OC(CCN1CCCCC1)(c1ccccc1)C1CC2C=CC1C2` (stereo not drawn) [Biperiden, alpha-bicyclo[2.2.1]hept-5-en-2-yl-alpha-phenyl-1-piperidinepropanol]: the Ki amounted to 1110 ± 200 µM.
